Experimental data reported in paper PMC5686190 (Scientific Reports, 2017).
Values after ≈ are worked out from the molar mass of the structure shown.

What was measured:
[1] = target: recombinant NA-1 (H1N1 neuraminidase) (Influenza A virus, UniProt Q9IGQ6); experiment: biochemical
[2] = tested on: mouse liver sialidase; conditions: cited from earlier work
[3] = tested on: bacterial NA; conditions: cited from earlier work

recombinant NA-1 (H1N1 neuraminidase), sequence (Q9IGQ6 whole entry, looked up): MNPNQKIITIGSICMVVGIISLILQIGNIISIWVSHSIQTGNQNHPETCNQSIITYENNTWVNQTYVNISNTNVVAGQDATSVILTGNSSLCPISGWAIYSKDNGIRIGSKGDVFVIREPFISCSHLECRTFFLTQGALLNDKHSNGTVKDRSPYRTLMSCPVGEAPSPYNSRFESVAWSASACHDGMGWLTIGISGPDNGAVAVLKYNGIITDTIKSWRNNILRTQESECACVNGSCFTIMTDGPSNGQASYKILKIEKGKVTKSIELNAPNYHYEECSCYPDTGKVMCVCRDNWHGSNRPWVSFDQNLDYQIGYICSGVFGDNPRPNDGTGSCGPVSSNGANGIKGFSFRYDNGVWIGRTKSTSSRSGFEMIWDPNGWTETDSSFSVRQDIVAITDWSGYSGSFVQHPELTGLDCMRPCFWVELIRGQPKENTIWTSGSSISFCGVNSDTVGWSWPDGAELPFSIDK

| SMILES | IC10 on NA-1 activity [1] [µg/mL] | IC50 on NA-1 activity [1] [µg/mL] | Inhibition of mouse liver sialidase [2] | IC50 [1] [µM] | Inhibition of bacterial NA activity [3] |
| --- | --- | --- | --- | --- | --- |
| CCC(CC)[C@H](NC(C)=O)[C@@H]1[C@H](O)[C@@H](C(=O)O)C[C@H]1N=C(N)N [Peramivir, reference compound] | 64.8 ± 8.4 (≈ 197 µM) | 478.8 ± 15.6 (≈ 1460 µM) |  |  |  |
| COc1c(O[C@@H]2O[C@H](C(=O)O)[C@@H](O)[C@H](O)[C@H]2O)cc(O)c2c(=O)cc(-c3ccccc3)oc12 [Wogonoside] | 19.6 ± 2.7 (≈ 42.6 µM) |  | inhibited | 405 |  |
| COc1cc2c(cc1OC)-c1cc3ccc(OC)c(OC)c3c[n+]1CC2 [Palmatine] | 2.1 ± 0.1 |  |  | 50.5 | inhibited |
| COc1cc2c(cc1O)C[C@H]1c3cc(O)c(OC)cc3CC[N@@+]1(C)C2 [Phellodendrine] | 23.1 ± 2.7 |  |  | 599 |  |
| COc1c(O)cc2oc(-c3ccccc3)cc(=O)c2c1O [Oroxylin A] | 5.1 ± 1.4 (≈ 17.9 µM) |  |  | 202 |  |
| COc1c(O)cc(O)c2c(=O)cc(-c3ccccc3)oc12 [Wogonin] | 34.0 ± 5.1 (≈ 120 µM) |  | inhibited | 866 |  |
| COC(=O)C1=CO[C@@H](O[C@@H]2O[C@H](CO)[C@@H](O)[C@H](O)[C@H]2O)[C@@H]2C(CO)=CC[C@H]12 [Geniposide] | 2.8 ± 0.2 (≈ 7.21 µM) |  |  | 87.5 |  |
| COc1cc2c(cc1O)CC[n+]1cc3c(OC)c(OC)ccc3cc1-2 [Jatrorrhizine] | 1.9 ± 0.1 |  |  | 67.1 | inhibited |
| O=C(O)[C@H]1O[C@@H](Oc2cc3oc(-c4ccccc4)cc(=O)c3c(O)c2O)[C@H](O)[C@@H](O)[C@@H]1O [Baicalin] |  |  |  | 1650 |  |
| COc1cc2c(cc1OC)-c1cc3ccc4c(c3c[n+]1CC2)OCO4 [Epiberberine] |  |  |  | 99.9 |  |
| COc1ccc2cc3[n+](cc2c1OC)CCc1cc2c(cc1-3)OCO2 [Berberine] | 3.1 ± 0.8 |  |  | 234 |  |
| COc1c(O[C@@H]2O[C@H](C(=O)O)[C@@H](O)[C@H](O)[C@H]2O)cc2oc(-c3ccccc3)cc(=O)c2c1O [Oroxylin A 7-O-β-D-glucuronide] | 29.3 ± 7.8 (≈ 63.6 µM) |  |  | 621 |  |
| O=c1cc(-c2ccccc2)oc2cc(O)c(O)c(O)c12 [Baicalein] | 75.0 ± 29.1 (≈ 278 µM) |  |  | 590 |  |
| c1c2c(cc3c1OCO3)-c1cc3ccc4c(c3c[n+]1CC2)OCO4 [Coptisine] |  |  |  | 327 | inhibited |
